Test results reported in patent US9428542B2, “Lupane triterpenoid derivatives and pharmaceutical use thereof” (priority 2012, dated 2016).

Key:
MT-2 cells = assay: Compounds' cytotoxicity assay in MT-2 cells (CellTiter-Glo); assay type: cell-based; parameters: unit not given here; details: toxicity in MT-2 cells, 3 days
Description: 3. Method for Compounds' Cytotoxicity Assay:
The MT-2 cells are diluted to a needed concentration. 90 μl of the MT-2 cells suspension was added into 384-well plates containing 10 μl of the tested compounds. Compounds were dissolved in DMSO and tested as 11 points 3-fold serial dilutions. After addition of cells to compound plates, plates were placed to humidified 5% CO2 37 incubator for 3 days. The Luciferase activity was measured by CellTiter-Glo® Luminescent Cell Viability Assay kit (Promega Corp., WI, USA).
(§1) TC50 is referred to the toxicity in MT-2 cells by the compounds tested at 50% concentration; IC50 is referred to the inhibiting HIV-1IIIB replication in MT-2 cells by the compounds tested at 50% concentration; Therapeutic Index (TI)=TC50/IC50.

HIV-1IIIB = assay: HIV-1 full replication assay (HIV-1IIIB-infected MT-2 cells, supernatant read out on TZM-bl cells, β-Gal); assay type: cell-based; details: Human immunodeficiency virus 1, MT2, 72 h, inhibiting HIV-1IIIB replication in MT-2 cells, 3 days; read-out: IC50 (PM)
Description: The antiviral activity of the compounds of the present invention was determined in a HIV-1 full replication assay.
In this assay, MT-2 cells that are infected with HIV-1IIIB were co-cultured with different concentration of the tested compounds for 3 days and then supernatant is transferred into new 384-well plates containing TZM-bl cells (also called JC53-bl). TZM-bl cells that could be infected by various kinds of HIV-1 strains stably express a great amount of HIV-1 receptor, co-receptor CD4 molecular, and co-receptor CXCR4 and CCR5. TZM-bl cells harbor LTR-luciferase and β-gal two report genes. The expression of luciferase and β-gal reporter directed by HIV-1 LTR can be activated by Tat protein generated after HIV infection, and the quantity of expression is proportional to the quantity of HIV-1. Compounds that interfere with virus replication in MT-2 cells, maturation of the virus, or post-entry steps in the HIV lifecycle decrease the luciferase signal or β-gal signal. In this experiment, BVM (Bevirimat, PA-457) is used as a positive control drug.
Method for Inhibiting HIV-1 Replication Assay:
The MT-2 cells are infected at a Multiciplicity (MOI) of 0.01 TCID50, and then the MT-2 cells suspension was diluted to a needed concentration. 90 μl of the MT-2 cells suspension from above was added into 384-well plates containing 10 μl of the tested compounds.
Compounds were dissolved in DMSO and tested as 11 points 3-fold serial dilutions. After addition of cells to compound plates, plates were placed to humidified 5% CO2 37 incubator for 3 days. 10 μl of cells culture supernatant from the incubated plates was transferred into new black 384-well plates.
Adjusted the TZMb1 cells concentration and 40 μl of TZMb1 cells was added into each well in the black 384-well plates. After addition of the TZMb1 cells to the black plates, black plates were placed to humidified 5% CO2 37 incubator for 24 h, then β-Gal activity was measured.
The anti viral activity %=(measured number-lowest mean number)/(highest mean number-lowest mean number)×100. The IC50 values were calculated by Median Equation and the IC curve was generated by Graphpad Prism V 5.03.
as §1

Question: With `CC(C)C1=C2[C@H]3CC[C@@H]4[C@@]5(C)CC[C@H](OC(=O)CC(C)(C)C(=O)O)C(C)(C)[C@@H]5CC[C@@]4(C)[C@]3(C)CC[C@@]2(c2nnc(-c3ncc(Cl)cn3)o2)CC1=O` [Compound 27-14] as the molecule, how does the “TC50 (PM)” value (MT-2 cells) read?
Answer: The value was 46.

Question: What about the IC50 (HIV-1IIIB) of the same molecule?
Answer: The IC50 was 4.9 nM.

Question: For `CC(C)C1=C2[C@H]3CC[C@@H]4[C@@]5(C)CC[C@H](OC(=O)CC(C)(C)C(=O)O)C(C)(C)[C@@H]5CC[C@@]4(C)[C@]3(C)CC[C@@]2(c2nnc(-c3ccc(Cl)cc3)o2)CC1=O` [Compound 27-1], which “TC50 (PM)” value (MT-2 cells) is on record?
Answer: Its value is 50.

Question: And the IC50 (HIV-1IIIB)?
Answer: Its IC50 is 3.3 nM.

Question: Which “TC50 (PM)” value (MT-2 cells) does the source give for `CC(C)C1=C2[C@H]3CC[C@@H]4[C@@]5(C)CC[C@H](OC(=O)CC(C)(C)C(=O)O)C(C)(C)[C@@H]5CC[C@@]4(C)[C@]3(C)CC[C@@]2(c2cnc(-c3ccc(Cl)cc3)o2)CC1=O` [Compound 77] here?
Answer: The value was 200.

Question: What about the IC50 (HIV-1IIIB) of the same molecule?
Answer: The IC50 was 159 nM.

Question: Which “TC50 (PM)” value (MT-2 cells) does the source give for `CC(C)C1=C2[C@H]3CC[C@@H]4[C@@]5(C)CC[C@H](OC(=O)CC(C)(C)C(=O)O)C(C)(C)[C@@H]5CC[C@@]4(C)[C@]3(C)CC[C@@]2(Cc2nnc(-c3ccccc3)o2)CC1=O` [Compound 22-2] here?
Answer: The value was 28.

Question: What about the IC50 (HIV-1IIIB) of the same molecule?
Answer: Its IC50 is 1.7 nM.

Question: With `CC(C)C1=C2[C@H]3CC[C@@H]4[C@@]5(C)CC[C@H](OC(=O)CC(C)(C)C(=O)O)C(C)(C)[C@@H]5CC[C@@]4(C)[C@]3(C)CC[C@@]2([C@@H](O)c2nnc(-c3ccc(Cl)cc3)o2)CC1=O` [Compound 127-1] as the molecule, how does the “TC50 (PM)” value (MT-2 cells) read?
Answer: Its value is 200.

Question: And the IC50 (HIV-1IIIB)?
Answer: The IC50 was 1.6 nM.

Question: `CCn1c([C@@]23CC[C@]4(C)[C@H](CC[C@@H]5[C@@]6(C)CC[C@H](OC(=O)CC(C)(C)C(=O)O)C(C)(C)[C@@H]6CC[C@]54C)C2=C(C(C)C)C(=O)C3)cc(=O)n1-c1ccc(Cl)cn1` [Compound 98-6] was tested. Which “TC50 (PM)” value (MT-2 cells) did it give?
Answer: Its value is 13.

Question: And the IC50 (HIV-1IIIB)?
Answer: Its IC50 is ≤ 0.17 nM.

Question: Which results are given for `CC(C)C1=C2[C@H]3CC[C@@H]4[C@@]5(C)CC[C@H](OC(=O)CC(C)(C)C(=O)O)C(C)(C)[C@@H]5CC[C@@]4(C)[C@]3(C)CC[C@@]2(Nc2nnc(-c3ccc(Cl)cc3)o2)CC1=O` [Compound 141-1]?
Answer: TC50 (PM) (MT-2 cells): 26; IC50 (HIV-1IIIB): 5.5 nM

Question: Which “TC50 (PM)” value (MT-2 cells) does the source give for `CC(C)C1=C2[C@H]3CC[C@@H]4[C@@]5(C)CC[C@H](OC(=O)CC(C)(C)C(=O)O)C(C)(C)[C@@H]5CC[C@@]4(C)[C@]3(C)CC[C@@]2(c2nnc(-c3cccnc3)o2)CC1=O` [Compound 27-9] here?
Answer: Its value is 200.

Question: And the IC50 (HIV-1IIIB)?
Answer: The IC50 was 8.8 nM.

Question: Which “TC50 (PM)” value (MT-2 cells) does the source give for `CC(C)C1=C2[C@H]3CC[C@@H]4[C@@]5(C)CC[C@H](OC(=O)CC(C)(C)C(=O)O)C(C)(C)[C@@H]5CC[C@@]4(C)[C@]3(C)CC[C@@]2(Cc2nnc(-c3ncc(Cl)cn3)o2)CC1=O` [Compound 22-16] here?
Answer: Its value is 39.

Question: And the IC50 (HIV-1IIIB)?
Answer: Its IC50 is 0.48 nM.

Question: What does the source list for `CC(C)C1=C2[C@H]3CC[C@@H]4[C@@]5(C)CC[C@H](OC(=O)CC(C)(C)C(=O)O)C(C)(C)[C@@H]5CC[C@@]4(C)[C@]3(C)CC[C@@]2(c2cc(=O)n(-c3ccc(Cl)cc3)n2CCN(C)C)CC1=O` [Compound 156-1]?
Answer: TC50 (PM) (MT-2 cells): 19; IC50 (HIV-1IIIB): ≤ 0.17 nM

Question: For `CC(C)C1=C2[C@H]3CC[C@@H]4[C@@]5(C)CC[C@H](OC(=O)CC(C)(C)C(=O)O)C(C)(C)[C@@H]5CC[C@@]4(C)[C@]3(C)CC[C@@]2(c2cc(=O)n(CC(N)=O)n2C)CC1=O` [Compound 91-6], which “TC50 (PM)” value (MT-2 cells) is on record?
Answer: Its value is 48.

Question: And the IC50 (HIV-1IIIB)?
Answer: Its IC50 is 2 nM.

Question: Which results are given for `CNCCn1c(C[C@@]23CC[C@]4(C)[C@H](CC[C@@H]5[C@@]6(C)CC[C@H](OC(=O)CC(C)(C)C(=O)O)C(C)(C)[C@@H]6CC[C@]54C)C2=C(C(C)C)C(=O)C3)nnc1-c1ccc(Cl)cc1` [Compound 116-2]?
Answer: TC50 (PM) (MT-2 cells): 27; IC50 (HIV-1IIIB): 4.8 nM
